Measurements taken from patent publication US9023789B2, “Amylin analogs and pharmaceutical compositions thereof” (Novo Nordisk A/S, priority 2012, dated 2015).
In brackets after ≈: the same amount, converted by molar mass. Read-outs that look alike come from different tables or passages of the source. Numbered stars: 1 amine (or outer) side, 2 acyl side, 3 side chain; on linkers, the order of the positions; unused ones are H or OH. Bridge positions count the residues as written; N and C are the ends. Side chains are listed from the residue outwards. Peptide text beside a SMILES is read from it. * marks the point of attachment. C20 diacid = O=C(O)CCCCCCCCCCCCCCCCCCC(=O)*; γGlu = O=C(O)[C@H](CCC(=O)[*:2])N[*:1]; AEEA = NCCOCCOCC(=O)O

How the values were obtained:
Sprague Dawley (SD) rats = experiment: ASSAY (I) efficacy testing on appetite (food intake) using an ad libitum fed rat model; format: in vivo; conditions: rat
In short: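 Individual food consumption was logged each hour up to 7 h and again at 24 h, occasionally 48 h, with Grubbs-test outliers removed. Each 200–250 g Sprague Dawley rat, free-feeding in its home cage under reversed lighting, received a single ip, po or sc dose of 0.01–3 mg/kg at lights-off, alongside a vehicle group.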

[1] = ASSAY (IV) determination of solubility; format: physicochemical
In short: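 UPLC read-out of polypeptide concentration after centrifugation. Samples: aqueous polypeptide stock ([…]) + 100 mM buffer 1:1, glycylglycine pH 3.0–5.0 or bistrispropane pH 6.0–8.0; 18 h, RT.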

[2] = molecular target: T1, human amylin receptor (membranes from Amylin 3(a)/CRE-luc cells) (Homo sapiens, UniProt O60896+P30988); experiment: ASSAY (V) binding to the human amylin receptor (SPA, 125I-rat amylin);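 note: competition binding of cell membranes (35 ng/µL) mixed with SPA beads in 384-well plates at 40 µL total volume, read by scintillation counting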
T1 construct: expressed in transfected cells
T1 sequence (P30988 25-474): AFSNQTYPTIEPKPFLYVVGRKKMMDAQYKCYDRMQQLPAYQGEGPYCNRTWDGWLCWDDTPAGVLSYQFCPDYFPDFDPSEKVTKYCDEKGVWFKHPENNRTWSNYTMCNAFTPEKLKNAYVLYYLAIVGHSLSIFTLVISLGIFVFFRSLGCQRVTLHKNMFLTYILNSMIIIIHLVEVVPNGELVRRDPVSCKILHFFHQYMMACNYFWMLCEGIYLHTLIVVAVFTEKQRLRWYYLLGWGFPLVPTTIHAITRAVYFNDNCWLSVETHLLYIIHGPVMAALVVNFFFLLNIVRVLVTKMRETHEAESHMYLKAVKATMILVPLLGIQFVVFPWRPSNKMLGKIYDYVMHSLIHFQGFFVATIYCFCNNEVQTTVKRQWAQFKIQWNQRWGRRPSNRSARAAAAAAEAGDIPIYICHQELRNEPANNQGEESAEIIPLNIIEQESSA
T1 sequence (O60896 24-148 partner): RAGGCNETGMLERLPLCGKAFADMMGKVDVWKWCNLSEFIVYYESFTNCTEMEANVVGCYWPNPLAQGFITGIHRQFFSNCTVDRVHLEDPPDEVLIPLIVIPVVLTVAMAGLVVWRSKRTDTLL

[3] = molecular target: T2, rat amylin receptor (rat calcitonin receptor + rat RAMP 3) (Rattus norvegicus, UniProt P32214+Q9JJ73); experiment: ASSAY (VI) binding to the rat amylin receptor; conditions: for IC50: binding to rat amylin receptor, read-out: rAmylin-R bind IC50
T2 construct: expressed in transfected cells; host or cells: BHK tk'ts 13 (transient, FuGENE 6), membranes
T2 sequence (P32214 25-479 isoform P32214-2 limits assumed): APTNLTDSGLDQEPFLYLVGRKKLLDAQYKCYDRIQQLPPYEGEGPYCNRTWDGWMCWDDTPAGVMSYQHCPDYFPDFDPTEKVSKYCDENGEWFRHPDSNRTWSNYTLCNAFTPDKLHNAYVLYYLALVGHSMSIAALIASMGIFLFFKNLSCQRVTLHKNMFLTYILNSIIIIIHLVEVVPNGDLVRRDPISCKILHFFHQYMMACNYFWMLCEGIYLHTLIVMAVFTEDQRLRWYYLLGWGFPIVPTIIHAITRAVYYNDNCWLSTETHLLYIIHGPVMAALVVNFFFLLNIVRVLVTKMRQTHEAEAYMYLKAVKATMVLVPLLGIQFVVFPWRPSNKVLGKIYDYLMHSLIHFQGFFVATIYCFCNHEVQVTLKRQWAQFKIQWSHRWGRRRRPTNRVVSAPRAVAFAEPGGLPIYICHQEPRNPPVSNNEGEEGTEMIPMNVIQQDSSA
T2 sequence (Q9JJ73 23-147 partner): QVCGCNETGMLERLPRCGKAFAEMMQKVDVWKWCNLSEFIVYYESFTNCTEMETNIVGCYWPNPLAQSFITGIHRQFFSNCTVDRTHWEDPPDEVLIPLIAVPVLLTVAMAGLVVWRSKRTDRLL
In short: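 The cell-membrane assay assessed binding at the rat amylin receptor. BHK tk′ts 13 cells were transfected transiently with rat calcitonin receptor, with FuGENE® 6 (Roche) as the transfection reagent, used per the manufacturer's recommendations. Approximately 48 hours after transfection the cells were harvested, and membranes were prepared for measuring binding.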

rat calcitonin receptor = molecular target: T3, rat calcitonin receptor (Rattus norvegicus, UniProt P32214); experiment: ASSAY (VIII) binding to the rat calcitonin receptor; conditions: Table 7, read-out: rCTR bind IC50
T3 construct: expressed in transfected cells; host or cells: BHK tk'ts 13 (transient, FuGENE 6), membranes
T3 sequence (P32214 25-479 isoform P32214-2 limits assumed): T2 sequence (P32214 25-479 isoform P32214-2 limits assumed)
In short: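 Receptor source: membranes from transiently transfected BHK tk′ts 13 cells expressing rat calcitonin receptor, collected roughly 48 hours after transfection.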

[4] = bistrispropane buffer, pH 6.5, read-out: Solubility pH 6.5 Concentration
[5] = bistrispropane buffer, pH 7.5, read-out: Solubility pH 7.5 Concentration
[6] = bistrispropane buffer, pH 6.0, read-out: Solubility pH 6.0 Concentration
[7] = bistrispropane buffer, pH 7.0, read-out: Solubility pH 7.0 Concentration
[8] = bistrispropane buffer, pH 8.0, read-out: Solubility pH 8.0 Concentration
[9] = glycylglycine buffer, pH 3.0, read-out: Solubility pH 3.0 Concentration
[10] = glycylglycine buffer, pH 4.0, read-out: Solubility pH 4.0 Concentration
[11] = glycylglycine buffer, pH 5.0, read-out: Solubility pH 5.0 Concentration
[12] = Table 5, selectivity, hCTR bind IC50 / hAmylin-R bind IC50
[13] = Table 5a, selectivity, hCTR bind IC50 / hAmylin-R bind IC50
[14] = Table 5b, selectivity, hCTR bind IC50 / hAmylin-R bind IC50
[15] = Table 5c, selectivity, hCTR bind IC50 / hAmylin-R bind IC50
[16] = Table 7, human binding selectivity, included for comparison
[17] = Table 7a (preferred compounds), human binding selectivity, included for comparison
[18] = ratio of human calcitonin receptor binding IC50 to human amylin receptor binding IC50
[19] = Table 7, rat binding selectivity, rCTR IC50 / rAmylin-R IC50
[20] = Table 7a (preferred compounds), rat binding selectivity, rCTR IC50 / rAmylin-R IC50
[21] = ratio of rCTR bind IC50 to rAmylin-R bind IC50

| SMILES | Food intake reduction 0-24 h 30 nmol/kg (%) (Sprague Dawley (SD) rats) | Food intake reduction 24-48 h 30 nmol/kg (%) (Sprague Dawley (SD) rats) | solubility at 18 h [1, 4] | solubility at 18 h [1, 5] | solubility at 18 h [1, 6] | solubility at 18 h [1, 7] | solubility at 18 h [1, 8] | solubility at 18 h [1, 9] | solubility at 18 h [1, 10] | solubility at 18 h [1, 11] | Ratio hCT/hAmylin binding [2, 12] | Ratio hCT/hAmylin binding [2, 13] | Ratio hCT/hAmylin binding [2, 14] | Ratio hCT/hAmylin binding [2, 15] | Ratio hCT/hAmylin binding [2, 16] | Ratio hCT/hAmylin binding [2, 17] | Ratio hCT/hAmylin binding [2, 18] | IC50 ([3]; Table 7) | Ratio rCT/rAmylin binding [3, 19] | Ratio rCT/rAmylin binding [3, 20] | further results |
| --- | --- | --- | --- | --- | --- | --- | --- | --- | --- | --- | --- | --- | --- | --- | --- | --- | --- | --- | --- | --- | --- |
| CC[C@H](C)[C@H](NC(=O)[C@H](C)NC(=O)CNC(=O)[C@H](Cc1ccccc1)NC(=O)[C@H](CC(N)=O)NC(=O)[C@@H]1CCCN1C(=O)[C@H](CO)NC(=O)[C@H](CO)NC(=O)[C@H](Cc1c[nH]cn1)NC(=O)[C@H](CCCNC(=N)N)NC(=O)[C@H](CC(C)C)NC(=O)[C@H](Cc1ccccc1)NC(=O)[C@H](CCC(=O)O)NC(=O)[C@H](C)NC(=O)[C@H](CC(C)C)NC(=O)[C@H](CCCNC(=N)N)NC(=O)[C@H](CCC(N)=O)NC(=O)[C@@H](NC(=O)[C@H](C)NC(=O)[C@@H]1CSSC[C@H](NC(=O)[C@@H](N)CCCCNC(=O)CC[C@H](NC(=O)CCCCCCCCCCCCCCCCCCC(=O)O)C(=O)O)C(=O)N[C@@H](CC(N)=O)C(=O)N[C@@H]([C@@H](C)O)C(=O)N[C@@H](C)C(=O)N[C@@H]([C@@H](C)O)C(=O)N1)[C@@H](C)O)C(=O)N1CCC[C@H]1C(=O)N[C@@H](CO)C(=O)N[C@@H](CO)C(=O)N[C@H](C(=O)N[C@@H](CC(N)=O)C(=O)N[C@H](C(=O)NCC(=O)N1CCC[C@H]1C(=O)N[C@@H](CCC(=O)O)C(=O)N[C@H](C(=O)N[C@@H](Cc1ccc(O)cc1)C(N)=O)[C@@H](C)O)C(C)C)[C@@H](C)O [Example 109] (H-K([γGlu-C20 diacid])CNTATCATQRLAEFLRHSSPNFGAIPSSTNVGPETY-NH2; disulfide 2-7 (inferred); N-terminus assumed) | 89% | 91% | ≥ 200 µM | ≥ 200 µM | ≥ 200 µM | ≥ 200 µM | ≥ 200 µM | ≥ 200 µM | ≥ 200 µM | ≥ 200 µM | 13.3 | 13.3 | 13.3 | 13.3 | 13.3 | 13.3 | 13.3 | 0.164 nM | 63.2 | 63.2 | Food intake reduction 0-24 h 3 nmol/kg (%) (Sprague Dawley (SD) rats): 57%; Food intake reduction 24-48 h 3 nmol/kg (%) (Sprague Dawley (SD) rats): 50%; Ratio rCT/rAmylin binding [3, 21]: 63.2; IC50 (rat calcitonin receptor): 10.4 nM |
| CC[C@H](C)[C@H](NC(=O)[C@H](C)NC(=O)CNC(=O)[C@H](Cc1ccccc1)NC(=O)[C@H](CC(N)=O)NC(=O)[C@@H]1CCCN1C(=O)[C@H](CO)NC(=O)[C@H](CO)NC(=O)[C@H](Cc1c[nH]cn1)NC(=O)[C@H](CCCNC(=N)N)NC(=O)[C@H](CC(C)C)NC(=O)[C@H](Cc1ccccc1)NC(=O)[C@H](CC(N)=O)NC(=O)[C@H](C)NC(=O)[C@H](CC(C)C)NC(=O)[C@H](CCCNC(=N)N)NC(=O)[C@H](CCC(N)=O)NC(=O)[C@@H](NC(=O)[C@H](C)NC(=O)[C@@H]1CSSC[C@H](NC(=O)[C@@H](N)CCCCNC(=O)COCCOCCNC(=O)CC[C@H](NC(=O)CCCCCCCCCCCCCCCCCCC(=O)O)C(=O)O)C(=O)N[C@@H](CC(N)=O)C(=O)N[C@@H]([C@@H](C)O)C(=O)N[C@@H](C)C(=O)N[C@@H]([C@@H](C)O)C(=O)N1)[C@@H](C)O)C(=O)N1CCC[C@H]1C(=O)N[C@@H](CO)C(=O)N[C@@H](CO)C(=O)N[C@H](C(=O)N[C@@H](CC(N)=O)C(=O)N[C@H](C(=O)NCC(=O)N[C@@H](Cc1c[nH]cn1)C(=O)N[C@@H](CC(N)=O)C(=O)N[C@H](C(=O)N[C@@H](Cc1ccc(O)cc1)C(N)=O)[C@@H](C)O)C(C)C)[C@@H](C)O [Example 76] (H-K([AEEA-γGlu-C20 diacid])CNTATCATQRLANFLRHSSPNFGAIPSSTNVGHNTY-NH2; disulfide 2-7; N-terminus assumed) | 31% | 2% | ≥ 200 µM | ≥ 200 µM | ≥ 200 µM | ≥ 200 µM | 140 µM (≈ 638 µg/mL) | ≥ 200 µM | ≥ 200 µM | ≥ 200 µM | 80.0 | 80.0 | 80.0 | 80.0 | 80.0 | 80.0 | 80.0 | 0.686 nM | 56.8 | 56.8 | IC50 ([2]; Table 4, read-out: hAmylin-R bind IC50): 0.215 nM; Ratio rCT/rAmylin binding [3, 21]: 56.8; IC50 (rat calcitonin receptor): 38.9 nM |
| CC[C@H](C)[C@H](NC(=O)[C@H](C)NC(=O)CNC(=O)[C@H](Cc1ccccc1)NC(=O)[C@H](CC(N)=O)NC(=O)[C@@H]1CCCN1C(=O)[C@H](CO)NC(=O)[C@H](CO)NC(=O)[C@H](Cc1c[nH]cn1)NC(=O)[C@H](CCCNC(=N)N)NC(=O)[C@H](CC(C)C)NC(=O)[C@H](Cc1ccccc1)NC(=O)[C@H](CCC(=O)O)NC(=O)[C@H](C)NC(=O)[C@H](CC(C)C)NC(=O)[C@H](CCCNC(=N)N)NC(=O)[C@H](CCC(N)=O)NC(=O)[C@@H](NC(=O)[C@H](C)NC(=O)[C@@H]1CSSC[C@H](NC(=O)[C@@H](N)CCCCNC(=O)CC[C@H](NC(=O)CCCCCCCCCCCCCCCCCCC(=O)O)C(=O)O)C(=O)N[C@@H](CC(N)=O)C(=O)N[C@@H]([C@@H](C)O)C(=O)N[C@@H](C)C(=O)N[C@@H]([C@@H](C)O)C(=O)N1)[C@@H](C)O)C(=O)N1CCC[C@H]1C(=O)N[C@@H](CO)C(=O)N[C@@H](CO)C(=O)N[C@H](C(=O)N[C@@H](CC(N)=O)C(=O)N[C@H](C(=O)NCC(=O)N1CCC[C@H]1C(=O)N[C@@H](Cc1c[nH]cn1)C(=O)N[C@H](C(=O)N[C@@H](Cc1ccc(O)cc1)C(N)=O)[C@@H](C)O)C(C)C)[C@@H](C)O [Example 118] (H-K([γGlu-C20 diacid])CNTATCATQRLAEFLRHSSPNFGAIPSSTNVGPHTY-NH2; disulfide 2-7) | 77% | 30% | ≥ 200 µM | ≥ 200 µM | ≥ 200 µM | ≥ 200 µM | ≥ 200 µM | ≥ 200 µM | ≥ 200 µM | ≥ 200 µM | 21.2 | 21.2 | 21.2 | 21.2 | 21.2 | 21.2 | 21.2 | 0.104 nM | 52.2 | 52.2 | Food intake reduction 0-24 h 3 nmol/kg (%) (Sprague Dawley (SD) rats): 43%; Food intake reduction 24-48 h 3 nmol/kg (%) (Sprague Dawley (SD) rats): 1%; Ratio rCT/rAmylin binding [3, 21]: 52.2; IC50 (rat calcitonin receptor): 5.43 nM |
